How the values were obtained:
[1] = test system: T47D; assay: Cell proliferation assay (CellTiter-Glo), T47D; assay type: cell-based; details: Homo sapiens, 72 h exposure, mean ± SD of two experiments
Method: (§1) Given the desirable enzyme activity profile, these compounds were further assayed for their antiproliferative activities against five independent human tumour cell line collections harbouring PIK3CA mutation, including human ovarian cancer cell line SKOV-3, human breast cancer T47D and MCF-7, human lung cancer H1975 and H460. […] In general, the cellular activity of tested derivatives corrected with their effects on kinase activity.
(§2) All target compounds were evaluated for antiproliferative potency against SKOV-3, T47D,NCI-H1975, NCI-H460,and MCF-7 tumour cell lines using a CellTiter-Glo® Luminescent Cell Viability Assay. The human tumour cell lines used were obtained from the ATCC or Shanghai ZhongQiaoXinZhou Biotech. All the mediums and FBS were Gibco. T47D, H1975 and NCI-H460 tumour cells were cultured in RPMI1640 medium supplemented with 10% FBS. SKOV-3 was cultured in McCoy’s 5 A medium supplemented with 10%FBS. The day before treatment with compounds, cells were seeded at a density of 2000 or 5000 in each well of a 96-well plate. The tumour cells were then treated with 3-fold serial diluted compound or DMSO control in the incubator at 37 °C and 5% CO2 for 3 days, prior to the addition of CellTiter-Glo reagents (Promega) and reading of luminescence using a PerkinElmer Envision plate reader. Data were analysed using GraphPad Prism 7.0.

[2] = test system: MCF-7; assay: Cell proliferation assay (CellTiter-Glo), MCF-7; assay type: cell-based; details: Homo sapiens, MCF7; 72 h exposure; mean ± SD of two experiments
Method: as §1, §2

[3] = test system: NCI-H1975; assay: Cell proliferation assay (CellTiter-Glo), NCI-H1975; assay type: cell-based; details: Homo sapiens, 72 h exposure, mean ± SD of two experiments
Method: as §1, §2

[4] = target: T1, PI3Kα (Homo sapiens, UniProt P42336); assay: In vitro PI3Kα enzymatic assay (ADP-Glo / Kinase-Glo, ATP 25 μM); assay type: biochemical; details: ATP 25 μM; for IC50: mean ± SD of two experiments; for inhibition at 10 µM: PI3Kα, compound 10 μM, mean ± SD of three determinations, read-out: % Inhibition at 10 μM
T1 construct: purchased Invitrogen
T1 sequence (P42336 whole entry): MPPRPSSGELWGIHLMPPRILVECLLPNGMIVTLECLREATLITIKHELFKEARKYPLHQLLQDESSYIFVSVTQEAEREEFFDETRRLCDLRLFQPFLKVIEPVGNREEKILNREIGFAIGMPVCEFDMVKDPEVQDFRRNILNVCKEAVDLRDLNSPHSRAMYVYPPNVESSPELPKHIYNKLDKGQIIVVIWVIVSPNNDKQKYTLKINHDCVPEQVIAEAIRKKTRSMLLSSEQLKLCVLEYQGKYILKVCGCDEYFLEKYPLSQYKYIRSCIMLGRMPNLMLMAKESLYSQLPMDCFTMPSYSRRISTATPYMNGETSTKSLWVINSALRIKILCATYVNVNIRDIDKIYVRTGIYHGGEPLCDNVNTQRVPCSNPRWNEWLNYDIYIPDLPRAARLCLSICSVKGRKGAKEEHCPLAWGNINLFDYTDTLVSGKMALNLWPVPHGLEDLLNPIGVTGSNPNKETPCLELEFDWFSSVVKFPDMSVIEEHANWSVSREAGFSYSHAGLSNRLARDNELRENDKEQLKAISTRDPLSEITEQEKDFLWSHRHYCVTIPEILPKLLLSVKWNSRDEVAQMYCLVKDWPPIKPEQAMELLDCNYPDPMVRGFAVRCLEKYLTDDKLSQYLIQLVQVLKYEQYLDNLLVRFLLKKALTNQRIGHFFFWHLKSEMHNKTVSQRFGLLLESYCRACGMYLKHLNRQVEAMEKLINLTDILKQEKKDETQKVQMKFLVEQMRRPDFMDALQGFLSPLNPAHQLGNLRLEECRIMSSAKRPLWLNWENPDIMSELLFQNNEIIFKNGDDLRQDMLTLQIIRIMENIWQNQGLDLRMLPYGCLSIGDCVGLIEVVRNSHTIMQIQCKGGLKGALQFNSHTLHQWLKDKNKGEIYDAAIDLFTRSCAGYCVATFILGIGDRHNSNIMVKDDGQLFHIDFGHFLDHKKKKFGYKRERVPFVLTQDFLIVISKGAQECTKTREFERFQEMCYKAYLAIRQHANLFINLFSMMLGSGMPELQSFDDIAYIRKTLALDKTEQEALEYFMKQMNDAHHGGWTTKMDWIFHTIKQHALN
T1 sequence (P27986 whole entry partner): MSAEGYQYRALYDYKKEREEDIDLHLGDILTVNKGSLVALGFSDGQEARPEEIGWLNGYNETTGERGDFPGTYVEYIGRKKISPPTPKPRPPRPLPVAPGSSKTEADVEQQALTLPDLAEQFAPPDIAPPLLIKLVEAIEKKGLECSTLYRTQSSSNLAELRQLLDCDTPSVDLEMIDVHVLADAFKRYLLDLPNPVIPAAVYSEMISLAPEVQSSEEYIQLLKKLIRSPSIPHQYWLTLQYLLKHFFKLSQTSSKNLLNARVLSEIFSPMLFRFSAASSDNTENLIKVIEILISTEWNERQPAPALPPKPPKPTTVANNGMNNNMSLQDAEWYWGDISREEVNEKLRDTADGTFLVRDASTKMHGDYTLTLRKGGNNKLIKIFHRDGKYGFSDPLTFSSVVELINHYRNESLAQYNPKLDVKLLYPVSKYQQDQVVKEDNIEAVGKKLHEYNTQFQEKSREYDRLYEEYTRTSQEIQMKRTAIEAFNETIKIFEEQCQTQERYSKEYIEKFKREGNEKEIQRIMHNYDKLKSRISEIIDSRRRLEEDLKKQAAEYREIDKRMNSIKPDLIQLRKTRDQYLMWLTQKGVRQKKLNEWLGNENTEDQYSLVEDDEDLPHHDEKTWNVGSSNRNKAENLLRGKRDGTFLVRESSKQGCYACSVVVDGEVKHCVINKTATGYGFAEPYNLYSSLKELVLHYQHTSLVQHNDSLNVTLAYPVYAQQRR
Method: To screen the inhibitory activity of the target compounds against PI3Kα, the Kinase-Glo™ assay with ATP at 25 μM was utilised with PIK-75 as positive control. We chose to explore the SARs at three positions on the Imidazo[1,2-a]pyridine core. To start with, a set of 8-position modifications were prepared while keeping the morpholinyl amide substituent on 2-position fixed, since it allowed quick structure − activity profiling via coupling reactions of bromide with aryl borates or boronic acids. […] We then turned our attention back to the phenyl substituents.
Briefly, the compound, PI3K enzyme (PI3Kα from Invitrogen), the PIP2 (Life Technologies) substrate, and ATP (25 μM, Sigma) were diluted in kinase buffer to the indicated concentrations. The assay plate was covered and incubated at room temperature for 1 h. Then, the Kinase-Glo reagent (Promega) was added to the PI3Kα plate to stop the reaction, mixed briefly with centrifuge, shaken slowly on the shaker and then equilibrate for 120 min. Finally, add Kinase detection reagent to each well, shake 1 min, equilibrate for 30 min before reading on a plate reader for luminescence. The data were collected on Envision and presented in Excel. IC50 values were calculated from the inhibition curves.

[5] = test system: NCI-H460; assay: Cell proliferation assay (CellTiter-Glo), NCI-H460; assay type: cell-based; details: Homo sapiens, 72 h exposure, mean ± SD of two experiments
Method: as §1, §2

[6] = test system: SKOV-3; assay: Cell proliferation assay (CellTiter-Glo), SKOV-3; assay type: cell-based; details: Homo sapiens, SK-OV-3; 72 h exposure; mean ± SD of two experiments
Method: as §1, §2

## COc1ncc(-c2cc(C)cn3cc(C(=O)NCCN4CCOCC4)nc23)cc1NS(=O)(=O)c1ccc(F)cc1 [Compound 40, 8–(5-((4-Fluorophenyl)sulfonamido)-6-methoxypyridin-3-yl)-6-methyl-N-(2-morpholinoethyl)Imidazo[1,2-a]pyridine-2-carboxamide]
[1]
  IC50: 12.5 ± 1.8 µM
[2]
  IC50: 7.6 ± 0.5 µM
[3]
  IC50: 41.4 ± 3.4 µM
[4]
  IC50: 0.5 ± 0.11 µM
  inhibition at 10 µM: > 85%
[5]
  IC50: 21.8 ± 1.9 µM
[6]
  IC50: 25.5 ± 3.9 µM

## COc1ncc(-c2cc(C)cn3cc(C(=O)N4CCCC4)nc23)cc1NS(=O)(=O)c1ccc(F)cc1F [Compound 36, 2,4-Difluoro-N-(2-methoxy-5–(6-methyl-2-(pyrrolidine-1-carbonyl)Imidazo[1,2-a]pyridin-8-yl)pyridin-3-yl)benzenesulfonamide]
[1]
  IC50: 15.9 ± 1.5 µM
[2]
  IC50: 8.1 ± 0.8 µM
[3]
  IC50: > 50 µM
[4]
  IC50: 1.12 ± 0.15 µM
  inhibition at 10 µM: > 85%
[5]
  IC50: 30.2 ± 3.1 µM
[6]
  IC50: 35.3 ± 4.2 µM

## Cc1nc(NC(=O)N2CCC[C@H]2C(N)=O)sc1-c1ccnc(C(C)(C)C(F)(F)F)c1 [Alpelisib, reference compound]
[1]
  IC50: 0.46 ± 0.05 µM
[2]
  IC50: 2.2 ± 0.3 µM
[3]
  IC50: 2.7 ± 0.2 µM
[5]
  IC50: 8.9 ± 0.7 µM
[6]
  IC50: 9.7 ± 0.7 µM
